Among the data in PubChem BioAssay AID1259407 (Chemical Carcinogenesis Research Information System (CCRIS), 2018) are mutagenic call values, retold here.

Molecules are shown by their SMILES. The source made the active and inactive calls. The rule behind the calls is not given here.

The series deals with CCRIS mutagenicity, Ames/micronucleus/aberration tests. The experiment in a line: CCRIS mutagenicity studies.
Setting [1] is: Test System: AMES SALMONELLA TYPHIMURIUM, Strain/Indicator: TA98, Metabolic Activation: NONE, Method: STANDARD PLATE.
[2] abbreviates: Test System: AMES SALMONELLA TYPHIMURIUM, Strain/Indicator: TA98, Metabolic Activation: RAT, LIVER, S-9, AROCLOR 1254, Method: STANDARD PLATE.
[3] abbreviates: Test System: AMES SALMONELLA TYPHIMURIUM, Strain/Indicator: TA100, Metabolic Activation: NONE, Method: STANDARD PLATE.
The mark [4] stands for this setting: Test System: AMES SALMONELLA TYPHIMURIUM, Strain/Indicator: TA100, Metabolic Activation: RAT, LIVER, S-9, AROCLOR 1254, Method: STANDARD PLATE.
Where [5] appears, read: Test System: AMES SALMONELLA TYPHIMURIUM, Strain/Indicator: TA98, Metabolic Activation: NONE, Method: PREINCUBATION
Setting [6] is: Test System: AMES SALMONELLA TYPHIMURIUM, Strain/Indicator: TA100, Metabolic Activation: NONE, Method: PREINCUBATION
Where [7] appears, read: Test System: AMES SALMONELLA TYPHIMURIUM, Strain/Indicator: TA1535, Metabolic Activation: NONE, Method: PREINCUBATION
Where [8] appears, read: Test System: AMES SALMONELLA TYPHIMURIUM, Strain/Indicator: TA1537, Metabolic Activation: NONE, Method: PREINCUBATION

On to `Fc1cccc(F)n1`, for which the mutagenic call runs as follows: (Test System: AMES SALMONELLA TYPHIMURIUM, Strain/Indicator: TA97, Metabolic Activation: NONE, Method: STANDARD PLATE) “inactive; negative”; (Test System: AMES SALMONELLA TYPHIMURIUM, Strain/Indicator: TA97, Metabolic Activation: RAT, LIVER, S-9, AROCLOR 1254, Method: STANDARD PLATE) “inactive; negative”; under setting [1], “inactive; negative”; under setting [2], “inactive; negative”; under setting [3], “inactive; negative”; under setting [4], “inactive; negative”. In addition, the mutagenic call (Test System: AMES SALMONELLA TYPHIMURIUM, Strain/Indicator: TA102, Metabolic Activation: NONE, Method: STANDARD PLATE) is “inactive; negative” and the mutagenic call (Test System: AMES SALMONELLA TYPHIMURIUM, Strain/Indicator: TA102, Metabolic Activation: RAT, LIVER, S-9, AROCLOR 1254, Method: STANDARD PLATE) is “inactive; negative”.

`CC(C)CN(CC(C)C)CC(C)C`: the mutagenic call (Test System: AMES SALMONELLA TYPHIMURIUM, Strain/Indicator: TA98, Metabolic Activation: HAMSTER, LIVER, S-9, AROCLOR 1254 (10%), Method: PREINCUBATION) was “inactive; negative”; the mutagenic call under setting [5] is “inactive; negative”; the mutagenic call (Test System: AMES SALMONELLA TYPHIMURIUM, Strain/Indicator: TA98, Metabolic Activation: RAT, LIVER, S-9, AROCLOR 1254 (10%), Method: PREINCUBATION) was “inactive; negative”; the mutagenic call (Test System: AMES SALMONELLA TYPHIMURIUM, Strain/Indicator: TA100, Metabolic Activation: HAMSTER, LIVER, S-9, AROCLOR 1254 (10%), Method: PREINCUBATION) was “inactive; negative”; the mutagenic call under setting [6] was “inactive; negative”; the mutagenic call (Test System: AMES SALMONELLA TYPHIMURIUM, Strain/Indicator: TA100, Metabolic Activation: RAT, LIVER, S-9, AROCLOR 1254 (10%), Method: PREINCUBATION) was “inactive; negative”. The mutagenic call (Test System: AMES SALMONELLA TYPHIMURIUM, Strain/Indicator: TA1535, Metabolic Activation: HAMSTER, LIVER, S-9, AROCLOR 1254 (10%), Method: PREINCUBATION) was “inactive; negative”; the mutagenic call under setting [7] was “inactive; negative”; the mutagenic call (Test System: AMES SALMONELLA TYPHIMURIUM, Strain/Indicator: TA1535, Metabolic Activation: RAT, LIVER, S-9, AROCLOR 1254 (10%), Method: PREINCUBATION) was “inactive; negative”; the mutagenic call (Test System: AMES SALMONELLA TYPHIMURIUM, Strain/Indicator: TA1537, Metabolic Activation: HAMSTER, LIVER, S-9, AROCLOR 1254 (10%), Method: PREINCUBATION) was “inactive; negative”; the mutagenic call under setting [8] is “inactive; negative”; the mutagenic call (Test System: AMES SALMONELLA TYPHIMURIUM, Strain/Indicator: TA1537, Metabolic Activation: RAT, LIVER, S-9, AROCLOR 1254 (10%), Method: PREINCUBATION) was “inactive; negative”.

Take `O=C(ON(OCc1ccccc1)C(=O)c1ccccc1)c1ccc([N+](=O)[O-])cc1`: the mutagenic call is “active; positive” under setting [3] and “active; positive” (Test System: AMES SALMONELLA TYPHIMURIUM, Strain/Indicator: TA100, Metabolic Activation: RAT, S-9, AROCLOR, Method: STANDARD PLATE).

Take `O=C(O)CCc1c[nH]c2ccccc12`: the mutagenic call under setting [6] is “inactive; negative”.

As for `O=S(=O)(O)c1cc(S(=O)(=O)O)c2cc(O)ccc2c1`, the mutagenic call under setting [5] was “inactive; negative”; the mutagenic call (Test System: AMES SALMONELLA TYPHIMURIUM, Strain/Indicator: TA98, Metabolic Activation: RAT LIVER S-9, PHENOBARBITAL AND BETA-NAPHTHOFLAVONE, Method: PREINCUBATION) is “inactive; negative”; the mutagenic call (Test System: AMES SALMONELLA TYPHIMURIUM, Strain/Indicator: TA98, Metabolic Activation: RAT, LIVER, S-9, PHENOBARBITAL, Method: PREINCUBATION) is “inactive; negative”; the mutagenic call under setting [6] is “inactive; negative”; the mutagenic call (Test System: AMES SALMONELLA TYPHIMURIUM, Strain/Indicator: TA100, Metabolic Activation: RAT LIVER S-9, PHENOBARBITAL AND BETA-NAPHTHOFLAVONE, Method: PREINCUBATION) was “inactive; negative”; the mutagenic call (Test System: AMES SALMONELLA TYPHIMURIUM, Strain/Indicator: TA100, Metabolic Activation: RAT, LIVER, S-9, PHENOBARBITAL, Method: PREINCUBATION) was “inactive; negative”. In addition, the mutagenic call reads like this: under setting [7], “inactive; negative”; (Test System: AMES SALMONELLA TYPHIMURIUM, Strain/Indicator: TA1535, Metabolic Activation: RAT LIVER S-9, PHENOBARBITAL AND BETA-NAPHTHOFLAVONE, Method: PREINCUBATION) “inactive; negative”; under setting [8], “inactive; negative”; (Test System: AMES SALMONELLA TYPHIMURIUM, Strain/Indicator: TA1537, Metabolic Activation: RAT LIVER S-9, PHENOBARBITAL AND BETA-NAPHTHOFLAVONE, Method: PREINCUBATION) “inactive; negative”; (Test System: AMES SALMONELLA TYPHIMURIUM, Strain/Indicator: TA1538, Metabolic Activation: NONE, Method: PREINCUBATION) “inactive; negative”; (Test System: AMES SALMONELLA TYPHIMURIUM, Strain/Indicator: TA1538, Metabolic Activation: RAT LIVER S-9, PHENOBARBITAL AND BETA-NAPHTHOFLAVONE, Method: PREINCUBATION) “inactive; negative”. The mutagenic call is, setting by setting: (Test System: E.COLI, Strain/Indicator: WP2UVRA, Metabolic Activation: NONE, Method: PREINCUBATION) “inactive; negative”; (Test System: E.COLI, Strain/Indicator: WP2UVRA, Metabolic Activation: RAT LIVER S-9, PHENOBARBITAL AND BETA-NAPHTHOFLAVONE, Method: PREINCUBATION) “inactive; negative”.

As for `O=C(/C=C/c1ccc(O)cc1)c1ccc(O)cc1O`, the mutagenic call was “inactive; negative” (Test System: Ames Salmonella typhimurium, Strain/Indicator: TA102, Metabolic Activation: None, Method: Preincubation) and “active; positive” (Test System: Ames Salmonella typhimurium, Strain/Indicator: TA102, Metabolic Activation: Rat, Liver, S-9, Aroclor 1254 in 0.154 M KCl, Method: Preincubation).

For the compound `C[C@]12CC[C@H](OC(=O)COc3ccc(N(CCCl)CCCl)cc3)C[C@@H]1CC[C@@H]1[C@@H]2CC[C@]2(C)NC(=O)CC[C@@H]12`, the mutagenic call is, setting by setting: under setting [1], “inactive; negative”; under setting [2], “inactive; negative”; under setting [3], “active; positive”; under setting [4], “active; positive”; (Test System: AMES SALMONELLA TYPHIMURIUM, Strain/Indicator: TA1535, Metabolic Activation: NONE, Method: STANDARD PLATE) “active; positive”; (Test System: AMES SALMONELLA TYPHIMURIUM, Strain/Indicator: TA1535, Metabolic Activation: RAT, LIVER, S-9, AROCLOR 1254, Method: STANDARD PLATE) “active; positive”. For the same compound, the mutagenic call was “active; positive” (Test System: AMES SALMONELLA TYPHIMURIUM, Strain/Indicator: TA1535, Metabolic Activation: S-9, Method: STANDARD PLATE); “inactive; negative” (Test System: AMES SALMONELLA TYPHIMURIUM, Strain/Indicator: TA1537, Metabolic Activation: NONE, Method: STANDARD PLATE); “inactive; negative” (Test System: AMES SALMONELLA TYPHIMURIUM, Strain/Indicator: TA1537, Metabolic Activation: RAT, LIVER, S-9, AROCLOR 1254, Method: STANDARD PLATE); “inactive; negative” (Test System: AMES SALMONELLA TYPHIMURIUM, Strain/Indicator: TA1537, Metabolic Activation: S-9, Method: STANDARD PLATE).
